Assay results: the METLIN SMRT retention time set (Domingo-Almenara et al. 2019)

Assay: gradient 5% acetonitrile 3 min, to 50% in 2 min, to 85% in 15 min, held 3 min, 100 µL/min
Conditions: column: Zorbax Extend-C18 2.1 x 50 mm; eluents: water / acetonitrile, 0.1% formic acid
Outline: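 Using water and acetonitrile that each contained 0.1% formic acid, mixtures of ~100 pure standards were separated at 100 μL/min on a Zorbax Extend-C18 column (2.1 × 50 mm, 1.8 μm). The HPLC fed a quadrupole time-of-flight mass spectrometer working in positive and negative ionization mode, with dead and dwell volumes of 40 μL and 900 μL. Data were acquired over 3 months. Retention time was read from computationally picked adduct peaks after manual inspection of each.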

SMILES	RP-LC retention time
Cc1nn(C)c(C)c1C(C)NC(=O)C1CCN(c2cnn(Cc3ccccc3)c(=O)c2)CC1 (configuration not stated)	650 s
CCCn1cc(CCNC(=O)c2ccc(F)c(F)c2)c2cccnc21	791 s
COCCSc1nc(-c2cccs2)cc(C(F)(F)F)c1C#N	1120 s
O=C(Nc1cccc(Br)c1)N1C[C@H]2C[C@H](C1)[C@H]1CCCC(=O)N1C2	708 s
COc1ccc(C(=O)N2CCC3(CC2)N=C(c2cccc(Br)c2)NO3)cc1F	901 s
COc1cccc(CNC(=O)c2nc(N3CCOCC3)c3c(C)cc(C)nc3n2)c1	625 s
Cc1cnc(C(=O)N2CCC3(CCC3O)CC2)cn1 (configuration not stated)	605 s
O=C(c1nc(-c2cccs2)cs1)N1CCCC1	935 s
COc1ccccc1Cc1noc(C2CN(S(=O)(=O)c3c(C)noc3C)C2)n1	897 s
CCCn1nnc2cc(-c3noc(C4CC(=O)N(c5ccc(C)cc5)C4)n3)ccc21 (configuration not stated)	964 s
Cc1cccc(NC(=O)Cn2nc(N3CCOCC3)c3ccccc3c2=O)c1	783 s
O=C(C1CCN(c2cnc3nccnc3c2)CC1)N1CCC(Cc2ccccc2)CC1	889 s
O=C(NCc1ccc(C(F)(F)F)cc1)c1cn2c(n1)CCCC2	646 s
Cc1ccc(-c2nc3ncccn3c2NC(=O)c2cccc(C(F)(F)F)c2)cc1	838 s
Cc1ccc(CNC(=O)C2(C)CN(S(C)(=O)=O)CC(=O)N2c2ccccc2F)cc1 (configuration not stated)	804 s
O=C(Cc1cn(Cc2ccccc2)c2ccccc12)NCc1cccs1	929 s
Cc1ccccc1-c1noc(C2CCCN2S(=O)(=O)c2ccc(Cl)cc2C)n1 (configuration not stated)	1290 s
O=C(Cn1nc2c(SC3CCCCC3)nccn2c1=O)NC1CCCCC1	987 s
O=C(CN1C(=O)NC2(CCCCC2)C1=O)Nc1ccccc1	722 s
Cc1cc(-c2nnc(-c3ccccc3)o2)c(C)n1CC(=O)Nc1ccc(F)c(F)c1	1010 s
CN1C/C=C/CCOc2cccc(c2)-c2ccnc(n2)Nc2cccc(c2)C1	742 s
Cc1cccc(C)c1NC(=O)Cn1cnc2nc(N3CCC(C(=O)NC4CC4)CC3)sc2c1=O	693 s

SMILES	RP-LC retention time
O=C(NCC(c1cccnc1)N1CCc2ccccc21)C(=O)Nc1ccc2c(c1)OCO2 (configuration not stated)	734 s
CCNC(=O)C1CCN(S(=O)(=O)c2cc(C(=O)N3CCCCCC3)cs2)CC1	717 s
O=C(Cn1cnc2nc(N3CCCC(C(=O)NC4CC4)C3)sc2c1=O)Nc1ccc2c(c1)OCO2 (configuration not stated)	659 s
CCCNc1cc(N2CCC(CCC(=O)NCc3cccs3)CC2)ncn1	661 s
Cc1ccccc1OCC1c2ccsc2CCN1C(=O)CN(CC1CCCO1)C(=O)NC(C)(C)C (configuration not stated)	1140 s
CCn1cc(-c2ccc(C)cc2)cc1C(=O)NCCCN1CCOCC1	693 s
CCC(C)NC(=O)CSc1nccc(N2CCN(c3cc(C)ccc3C)CC2)n1 (configuration not stated)	873 s
Cn1cnnc1SCCNC(=O)Cc1csc(Nc2ncccn2)n1	564 s
O=C1[C@H]2CN(Cc3cc(F)cc(F)c3)C[C@H]2C(=O)N1CCc1ccccc1	957 s
Cc1nc(-c2ccc(C(=O)N3CCCC3)cc2)no1	675 s
COc1ccc(S(=O)(=O)N2CC(C(=O)NC3CCCC3)Oc3cc(C)ccc32)cc1 (configuration not stated)	1100 s
CCOc1ccc(CNC(=O)c2cn3cc(Cl)ccc3n2)cc1	863 s
CCc1ccc(S(=O)(=O)N2C[C@@H](F)C[C@H]2C(=O)N2CCc3ccccc3C2)cc1	998 s
CC(C)Sc1ccc(CC(=O)NCC2CCN(C(=O)NC(C)(C)C)CC2)cc1	828 s
Cc1ccc2ncn(C3CCN(S(=O)(=O)c4ccc(C(C)C)cc4)CC3)c(=O)c2c1	1050 s
CNC(=O)Nc1cccn2nc(-c3ccccc3)nc12	702 s
Cc1nn(C)c(C)c1S(=O)(=O)N1CCO[C@@H](COc2ccccn2)[C@@H]1c1ccccc1	850 s
CN(CCNC(=O)c1ccc(CN2C(=O)CCn3nccc32)cc1)C1CCCCC1	599 s
CCn1c(=O)n(CC)c2cc(S(=O)(=O)c3ccc(C)cc3)c(N)cc21	760 s
CCN1CCN(C(=O)CC2CCN(S(=O)(=O)c3ccc(Cl)s3)CC2)CC1	647 s
Cn1c(=O)c2c(nc3n(-c4ccc(F)cc4)c(-c4ccc(Cl)cc4)cn23)n(C)c1=O	1010 s
Cc1nn(CC(=O)NC2CC2)c(=O)c2nc(-c3ccccc3)sc12	711 s

SMILES	RP-LC retention time
Cc1ccc(NC(=O)NCC2CCOCC2)cc1F	710 s
Cc1ccccc1CN1C(=O)CN(S(=O)(=O)c2ccccc2)CC1(C)C(=O)NCc1ccccc1 (configuration not stated)	905 s
CCc1ccccc1NS(=O)(=O)c1cc(-c2c(CC)noc2NC(C)=O)ccc1C	855 s
CCCc1noc(-c2ccnc(-n3ncc(C(=O)Nc4ccc(C)c(F)c4)c3C)c2)n1	1170 s
COC(=O)C1=C(N)Oc2cc(C)n(CCN(C)C)c(=O)c2C1c1cccc(OC)c1 (configuration not stated)	609 s
Cc1cccc(-c2noc(Cc3nnc(-c4cc(C)cc(C)c4)o3)n2)c1	842 s
C=CCN(CC=C)c1nc(-c2ccc(Cl)cc2)nc2ccccc12	936 s
COc1ccccc1N1C(=O)N(c2ccc([N+](=O)[O-])cc2)C2CS(=O)(=O)CC21 (configuration not stated)	745 s
O=C(C1CCCN(c2ncnc3c2nc2n3CCCCC2)C1)N1CCN(Cc2ccccc2)CC1 (configuration not stated)	615 s
c1ccc(-c2noc(N3CCCCC3)n2)cc1	1070 s
CC(C)c1ccc(C(=O)Nc2cc(-c3ccccn3)no2)cc1	960 s
COc1ccc(NC(=O)Cn2c(=O)n(-c3ccc(F)cc3)c(=O)c3c2cc(C)n3C)cc1OC	739 s
CCN1CCN(c2nc3cc(C(=O)OC)ccc3c(=O)n2-c2cccc(Cl)c2)CC1	665 s
Cn1nc(Br)nc1Sc1ccccc1NC(=O)C1CC1	763 s
CCCCc1nnc(NC(=O)C2CC(=O)N(CCc3c[nH]c4ccc(C)cc34)C2)s1 (configuration not stated)	802 s
COc1ccc(NC(=O)N2CCCC(CN3CCc4ccccc4C3)C2)cc1OC (configuration not stated)	628 s
COc1cc(CC(=O)N2CCc3cc(-c4cc(C)no4)ccc32)cc(OC)c1	951 s
CCC1(C(=O)Nc2ccc(OC)c(F)c2)CCCCC(=O)N1 (configuration not stated)	720 s
COc1ccc(NC(=O)Nc2cccc(-c3ccc(N4CCOCC4)nn3)c2)cc1Cl	715 s
Cc1ccc(Cn2nc3ccc(S(=O)(=O)N4CCCCC4)cn3c2=O)cc1	952 s
CNC(=O)c1cc(-c2cccc(OC)c2)n[nH]1	665 s
Cc1ccn(CC(C)NC(=O)c2cn3ccccc3n2)n1 (configuration not stated)	583 s

SMILES	RP-LC retention time
CCn1c(C)c(C(=O)C(C)N(C(=O)c2ccc(C)cc2)C2CC2)c(C)c1C(=O)OC (configuration not stated)	1040 s
Cc1ccc(NC(=O)Cn2c(C)nc3onc(C)c3c2=O)c(C)c1	800 s
COc1ccc(Cn2c(=O)c3sccc3n(Cc3nc(-c4ccccc4Cl)no3)c2=O)cc1	1090 s
Fc1ccc(F)c(-c2nc(-c3ccc(-n4cccn4)nc3)no2)c1	1170 s
OC(COc1ccc(Cl)cc1)CN1CCN(c2cccc(Cl)c2)CC1 (configuration not stated)	866 s
Cc1ccc(N(C)S(=O)(=O)c2cc(-c3[nH]ncc3C(=O)N3CCCCC3)oc2C)cc1	835 s
O=C(NCc1ccccc1)N1[C@H]2CC[C@@H]1c1cnc(-c3ccccc3)nc1C2	865 s
O=C(Nc1cccc(Br)c1)c1cccn1Cc1noc(C2CC2)n1	1040 s
O=C1CC(/C=C/c2ccccc2)Cc2nc(N3CCN(Cc4ccc5c(c4)OCO5)CC3)ncc21 (configuration not stated)	782 s
CN(CCO)c1cc(N2CCN(c3ccccn3)CC2)c2noc3c2c1C(=O)c1ccccc1-3	614 s
Cc1nc(-c2ccccc2)cc2nn(CC(=O)Nc3ccc(F)c(Cl)c3)c(=O)n12	1010 s
O=C(Cc1nnc(-c2ccc3ncccc3c2)o1)Nc1ccc(F)cc1Cl	730 s
Cc1ccc(Cn2cc(-c3ccncc3)cc2C(=O)NC(C)c2ccccn2)cc1 (configuration not stated)	620 s
CCC(C)NS(=O)(=O)c1cc(-c2nc(C)cs2)n(CC(=O)N2CCCCC2)c1 (configuration not stated)	920 s
COc1ccc(-n2c(=O)c(C(=O)Nc3ccc(OC)c(F)c3)c(O)c3cccnc32)cc1	1200 s
CC(=O)Nc1ccc(CCc2nc3ccc(C(=O)NCc4cccc(Br)c4)cc3[nH]2)cc1	669 s
CCOC(=O)N1CCN(S(=O)(=O)c2ccc(C(=O)Nc3nnc(C4CC4)o3)cc2)CC1	661 s
O=C(Cn1ncc2c(N3CCN(c4ccccn4)CC3)ncnc21)Nc1ccc(F)c(F)c1	572 s
Cc1sc(NC(=O)Cc2csc(-c3ccccc3)n2)nc1-c1ccc(Cl)cc1	1280 s
Cc1sc(-c2noc(C(C)C)n2)cc1S(=O)(=O)N1CCC(C(=O)N2CCOCC2)CC1	909 s
COc1ccc2nc(C(=O)NCc3cccc(Br)c3)cn2n1	896 s
